Consider three molecules from PMC9862096, “Interaction of a Homologous Series of Amphiphiles with P-glycoprotein in a Membrane Environment—Contributions of Polar and Non-Polar Interactions” (Pharmaceutics, 2023).

Structures are written as SMILES.

A short description of data set [1]: Association (partition) of the NBD amphiphiles with native membranes, NBD fluorescence. It counts as physicochemical, High-Five insect cells. To be noted: for KPW→M: aqueous phase to native membrane. As to the method: (§1) The membranes were diluted to the chosen concentration with simplified ATPase assay buffer and warmed to 37 °C. The NBD amphiphiles were added from stocks in DMSO (final DMSO 1% v/v) by squirting the required volume into the membrane solution under gentle vortex. Fluorescence intensity was measured after 15 to 30 min incubation at 37 °C using a Cary Eclipse spectrofluorimeter (Varian, Singapore). The path length of the sample container was selected to guarantee that scattering at the excitation wavelength was smaller than 0.1 while maintaining a good signal/noise ratio (3, 5, or 10 mm).
(§2) The increase in fluorescence of the NBD amphiphiles when associated with the model membranes was well described by a simple partition (Equation (S3)). The low affinity of the less lipophilic amphiphiles for the native membranes required the use of high membrane concentrations, and the fluorescence was measured with the plate reader SpectraMax iD5 (Molecular Devices, Berkshire, UK), where the reading setup is not very sensitive to scatter. To guarantee that the high scatter intensity was not leading to artifacts in the measured fluorescence intensity of NBD–C4, titrations of NBD-C6 and NBD–C8 were also performed in the same plate. For these two latter amphiphiles, the results obtained for the partition coefficient were similar to those obtained for experiments with low scatter intensity. A small decrease in the fluorescence intensity from NBD–C8 was nevertheless observed at very high scatter intensities (OD ≥ 0.5), which was used to correct the signal from the less lipophilic amphiphiles, see Supplementary Information (Figure S5 and Equation (S4)). The molar volume considered for the lipid was 0.8 dm^3/mol, and 1.2 g/mL was considered for the density of the membrane proteins.
S3 – Partition of the NBD amphiphiles to lipid bilayers and native membranes The fluorescence increase that accompanies the association of the NBD amphiphiles with the model membra nes was well defined by a simple partition, equation S3. […]
where IfW and If M are respec ti vel y the fluorescence intensity when all fluorescent amphiphile is in the aqueous phase and ass oci ated with the membranes, LbK is the partition co eff icient P between the aqueous and the lipid bilayer, V is the molar vo l u m e of the lipid when in the lipid L bi l ayer, and [L] is the lipid concentration.
To characterize the association of the NBD amphiphiles with the native membranes the whole membrane vo lume was considere d, including the lipid bilayer and the membrane proteins. For the ca se of the less lipophilic amphiphiles NBD‐C4 and NBD‐C6, a sig nif ica nt scatter from the […]
both to the larger size of the vesicles (ca 1 µm diameter, [1]) and to the high refractive index of the native membranes. The magnitude of the scatter effect was quantified through the best fit […]
partition to the membranes at co n ce ntrations where scatter is not significant. The modified […]
where s is the scatter correction factor for a given concentration of native membranes, If W and IfM are respectively the fluorescence intensity when all fluorescent amphiphile is in the aqueous phase and associated with the membranes, WMK → is the partition coefficient between the P aqueous phase and the native membrane, V is the molar volume of the lipid when in the L membrane and [L] the molar concentration of the membrane lipids, V is the vo lume occupied P by 1 g of membrane protein (assuming a density of 1.2 g/mL) and [P] is the protein concentration in units of ma ss per volume.
Typical results obtained for the variation of the fluorescence intensity at 540 nm of the NBD‐Cn fluorophores equilibrated with increasing concentrations of native membranes, are shown in figure S3. The fluorescence intensity was measured in black 96 well plates with the plate reader […]
SpectraMax iD5. The NBD‐Cn concentrations we re 0.5 µM for NBD‐C8 , 1 µM for NBD‐C6, and 2 µM for NBD‐C4, and the total volume per well was 150 µL. […]

The nature of data set [2]: Association (partition) with model membranes (LUVs POPE:POPC:POPS 45:35:20). It counts as physicochemical. To be noted: aqueous phase to model lipid bilayer. As to the method: The model membranes with a phospholipid composition representative of that of the native membranes (POPE:POPC:POPS 45:35 20) were prepared from stock solutions of the required lipids in chloroform or in chloroform/methanol (87/13, v/v), as described before. The solvent-free lipid residue was hydrated at 40 °C with previously heated simplified ATPase assay buffer (with all components except Ouabain and DTT). Large Unilamelar Vesicles were prepared by extrusion through two-staked polycarbonate filters (100 nm pore diameter), and the size of the LUVs was analyzed by dynamic light scattering (Zetasizer Nano ZS, Malvern, UK) being close to the filter pore size.
as §1, §2
S3 – Partition of the NBD amphiphiles to lipid bilayers and native membranes
The fluorescence increase that accompanies the association of the NBD amphiphiles with the
model membra nes was well defined by a simple partition, equation S3.
If 1540 nm Lb= + S3, KVL[]
where IfW and If M are respec ti vel y the fluorescence intensity when all fluorescent amphiphile is
in the aqueous phase and ass oci ated with the membranes, LbK is the partition co eff icient P
between the aqueous and the lipid bilayer, V is the molar vo l u m e of the lipid when in the lipid L
bi l ayer, and [L] is the lipid concentration. […]

The next data set has as its system P–gp. As to the kind of experiment: Partition coefficient to membrane protein from Equations (1) and (2), binding to P–gp only. To be noted: binding to the protein P–gp only. It is filed as physicochemical, mouse. The source says: (§3) From the partition coefficient obtained for the native membranes, KPW→M , and that for the model lipid bilayers, KPW→Lb , one can calculate the partition coefficient between the aqueous phase and the proteins in the membrane, KPW→P , and from the lipid bilayer to the proteins, KPLb→P , Equations (1) and (2), [40]. (1) KPW→M VM=KPW→PVP+KPW→Lb VLb (2) KPLb→P=KPW→P/KPW→Lb
(§4) In Equation (1) it is necessary to include the volume occupied by the proteins, and the values obtained will, therefore, depend on whether it is considered that the amphiphile may interact with all proteins in the membrane or with P–gp only.

Data set [3] can be described thus: Partition coefficient to membrane proteins from Equations (1) and (2), all membrane proteins with equal affinity. It counts as physicochemical, High-Five insect cells. To be noted: binding to all membrane proteins with equal affinity.
Excerpt: as §3, §4

For data set [4] the following is noted: cited from earlier work.
The conditions of data set [5]: e.g. 1 M trehalose; cited from earlier work.
Data set [6] has as its target T1, mP–gp (Mus musculus, UniProt P21447).
T1 construct: made in house; host or cells: High-Five insect cells (Invitrogen), recombinant baculovirus; total membrane vesicles
The data set can be described thus: Photolabeling of P–gp with [125I]-IAAP / IAAP displacement. It is filed as binding. To be noted: concentration of 2 μM, positive control. The protocol: The native membranes of High-Five insect cells expressing mP–gp (1.0 mg/mL) were incubated at room temperature with the indicated concentrations of the inhibitor for 5 min. IAAP (5 to 7 nM) was later added, and the reaction mixture was further incubated for 5 min under subdued light. The samples were photocross-linked with 366 nm UV light for 10 min at room temperature, followed by electrophoresis and quantification, as described previously. The raw data are shown in the Supplementary Information (Figure S4). The results were first analyzed with the usual equation, considering the total concentration of IAAP and NBD amphiphile, as well as competitive inhibition of IAAP binding, see Supplementary Information (Equation (S2)). The dissociation constant considered for IAAP was taken from the literature, 412 nM [15]. The results were also analyzed with a formalism derived in this manuscript considering the distribution of the NBD amphiphile in the distinct environments (aqueous phase, lipid bilayer, and P–gp), the distribution of IAAP between the aqueous media and P–gp, and several equal and independent binding sites in P–gp’s binding pocket, Equation (10).
In this assay, in addition to the binding of the NBD amphiphiles to P–gp binding pocket, it is also necessary to consider the binding of IAAP. The concentration of IAAP used in the assay (5 nM) is several orders of magnitude smaller than that of the amphiphiles in study, and it is also smaller than the total concentration of P–gp (59 nM). Therefore, Equation (8) may be used to calculate the concentration of free ligand and protein. The fraction of IAAP bound to P–gp may then be calculated from Equation (10), where P^* is the concentration of P–gp available for IAAP binding. (10) IP/IT=−b−b^2−4ac/2aa=1; b=−1+KdIAAP/IT+P^*/IT; c=P^*/IT
The number of binding sites in P–gp binding pocket was varied from 1 to 5, and three situations were considered in the analysis: (i) full inhibition of IAAP binding when at least one NBD amphiphile is in the P–gp binding pocket ( i≥1 ), corresponding to P^*=P; (ii) inhibition of IAAP binding only when P–gp is fully saturated ( i=n ), corresponding to P^*=P+∑i=1n−1PLi; and (iii) an intermediate situation with IAAP displacement for i≥n−1 , corresponding to P^*=P+∑i=1n−2PLi .
The displacement of IAAP from P–gp binding pocket was calculated from Equation (11), where IP0 is the concentration of IAAP bound to P–gp in the absence of the NBD amphiphiles. (11) IAAP displacement %=100IP0−IP/IP0

In data set [7] the target is T1, mP–gp. Also on record: method as in PMID 28283574. To be noted: positive control; read-out: KI, inhibition of IAAP binding; cited from earlier work.

T1 sequence (P21447 whole entry): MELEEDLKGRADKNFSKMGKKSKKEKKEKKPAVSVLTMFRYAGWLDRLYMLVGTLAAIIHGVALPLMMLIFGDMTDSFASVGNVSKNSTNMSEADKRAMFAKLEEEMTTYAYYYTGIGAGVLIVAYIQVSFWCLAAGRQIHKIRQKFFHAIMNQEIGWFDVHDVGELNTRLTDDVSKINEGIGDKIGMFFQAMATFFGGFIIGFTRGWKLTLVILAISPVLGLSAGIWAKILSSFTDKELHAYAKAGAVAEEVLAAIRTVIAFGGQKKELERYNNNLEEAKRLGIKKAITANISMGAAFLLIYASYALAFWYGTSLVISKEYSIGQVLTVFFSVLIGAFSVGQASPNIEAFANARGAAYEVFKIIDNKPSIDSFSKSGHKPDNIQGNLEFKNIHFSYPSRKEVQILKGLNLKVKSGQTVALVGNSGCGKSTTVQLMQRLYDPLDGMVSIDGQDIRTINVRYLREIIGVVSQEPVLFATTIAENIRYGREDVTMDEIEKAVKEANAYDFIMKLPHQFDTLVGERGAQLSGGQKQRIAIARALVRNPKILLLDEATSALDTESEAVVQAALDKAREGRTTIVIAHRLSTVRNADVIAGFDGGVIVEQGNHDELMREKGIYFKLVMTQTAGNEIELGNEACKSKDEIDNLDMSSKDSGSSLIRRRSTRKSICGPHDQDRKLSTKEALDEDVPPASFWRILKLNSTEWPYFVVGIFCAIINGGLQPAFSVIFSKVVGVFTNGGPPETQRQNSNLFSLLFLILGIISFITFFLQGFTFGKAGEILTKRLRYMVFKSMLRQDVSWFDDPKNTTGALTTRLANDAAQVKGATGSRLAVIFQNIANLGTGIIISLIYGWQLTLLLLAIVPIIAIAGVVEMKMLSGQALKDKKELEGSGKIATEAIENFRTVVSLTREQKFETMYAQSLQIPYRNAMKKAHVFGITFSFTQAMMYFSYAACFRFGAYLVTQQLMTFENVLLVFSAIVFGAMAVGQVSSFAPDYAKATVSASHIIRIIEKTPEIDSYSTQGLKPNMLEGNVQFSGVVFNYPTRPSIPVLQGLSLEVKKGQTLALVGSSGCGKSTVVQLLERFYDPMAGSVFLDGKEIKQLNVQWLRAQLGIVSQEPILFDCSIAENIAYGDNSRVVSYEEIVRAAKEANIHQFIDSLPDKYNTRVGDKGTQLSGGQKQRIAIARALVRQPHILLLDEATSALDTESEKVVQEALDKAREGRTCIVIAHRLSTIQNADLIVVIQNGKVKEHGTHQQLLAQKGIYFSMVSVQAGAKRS

Regarding `CCCCCCNc1ccc([N+](=O)[O-])c2nonc12` [NBD-C6], the “LogKP, association with the native membranes” value in data set [1] (37 °C, simplified ATPase assay buffer) is 3.20 ± 0.26. In addition, the KPW→M in data set [1] (membrane volume = phospholipid bilayer and P–gp (binding to the protein P–gp only)) was 3.9 × 10^3; in data set [1] (membrane volume = phospholipid bilayer and all proteins (binding to all membrane proteins with equal affinity)), 1.6 × 10^3. Also, the KPW→Lb in data set [2] (section: binding to all membrane proteins with equal affinity) and in data set [2] (section: binding to the protein P–gp only) was 2.4 × 10^3 throughout. The KPW→P is recorded as 1.0 × 10^5 with P–gp (aqueous phase to protein) and 1.0 × 10^3 in data set [3] (aqueous phase to proteins). Besides, the KPLb→P in the data set with P–gp (lipid bilayer to protein) was 43; in data set [3] (lipid bilayer to proteins) it was 0.43. The “LogKP, association with POPC bilayers” value in data set [4] is on record as 3.79.

Regarding `CCCCCCCCCCNc1ccc([N+](=O)[O-])c2nonc12` [NBD-C10], the “increase of CAC in the presence of co-solvent” value in data set [5] is 6 fold.

Regarding `COc1cc2c(cc1OC)CN(CCc1ccc(NC(=O)c3cc(OC)c(OC)cc3NC(=O)c3cnc4ccccc4c3)cc1)CC2` [Tariquidar, reference compound], at mP–gp [6], the “Inhibition of IAAP binding” value is recorded as “efficient inhibition of IAAP binding”. On mP–gp [7], the Ki – broadly, the equilibrium dissociation constant of an inhibitor or competing ligand from its target – is 200 nM.
